Earlier results, collected in patent publication US20170046504A1, “SYSTEM FOR DETERMINING A SUITABILITY OF AN ACTIVE INGREDIENT TO BE APPLIED TRANSDERMALLY OR TRANSMUCOSALLY AND CORRESPONDING METHOD” (LTS Lohmann Therapie-Systeme AG, priority 2014, published 2017).

How the values were obtained:
[1] = in vivo
[2] = assumed

CN1CCCC1c1cccnc1 (centres unmarked) [nicotine]
half-life period [1]: 1 to 6 h | efficiency for oral administration [2]: 20-45%
